From the supplement of paper PMC11061612

Key:
MK-2206 = compound: NC1(c2ccc(-c3nc4ccn5c(=O)[nH]nc5c4cc3-c3ccccc3)cc2)CCC1 [MK-2206]; settings: max 10 µM
Method in brief: (§1)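 After 24 hours at 37°C and 5% CO2 in 1536-well plates holding 7.5 μl of DMEM/F12 or RPMI with 10% FBS, cancer cell lines were dosed for 72 hours, with final DMSO typically 0.2%. Viability came from CellTiter-Glo 2.0 luminescence, scaled between the means of blank wells and DMSO wells. A non-linear mixed effects model fitted a two-parameter logistic curve to each dose response to give the single-agent IC50.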

5-Fluorouracil = compound: O=c1[nH]cc(F)c(=O)[nH]1 [5-Fluorouracil]; settings: max 20 µM
Method in brief: as §1

AZD1775 = compound: C=CCn1c(=O)c2cnc(Nc3ccc(N4CCN(C)CC4)cc3)nc2n1-c1cccc(C(C)(C)O)n1 [AZD1775]; settings: max 3 µM
Method in brief: as §1

Doxorubicin = compound: COc1cccc2c1C(=O)c1c(O)c3c(c(O)c1C2=O)C[C@@](O)(C(=O)CO)C[C@@H]3O[C@H]1C[C@H](N)[C@H](O)[C@H](C)O1 [Doxorubicin]; settings: max 1 µM
Method in brief: as §1

Selumetinib = compound: Cn1cnc2c(F)c(Nc3ccc(Br)cc3Cl)c(C(=O)NOCCO)cc21 [Selumetinib]; settings: max 10 µM
Method in brief: as §1

Venetoclax = compound: CC1(C)CCC(CN2CCN(c3ccc(C(=O)NS(=O)(=O)c4ccc(NCC5CCOCC5)c([N+](=O)[O-])c4)c(Oc4cnc5[nH]ccc5c4)c3)CC2)=C(c2ccc(Cl)cc2)C1 [Venetoclax]; settings: max 1 µM
Method in brief: as §1

Trametinib = compound: CC(=O)Nc1cccc(-n2c(=O)n(C3CC3)c(=O)c3c(Nc4ccc(I)cc4F)n(C)c(=O)c(C)c32)c1 [Trametinib]; settings: max 1 µM
Method in brief: as §1

Lapatinib = compound: CS(=O)(=O)CCNCc1ccc(-c2ccc3ncnc(Nc4ccc(OCc5cccc(F)c5)c(Cl)c4)c3c2)o1 [Lapatinib]; settings: max 10 µM
Method in brief: as §1

Alisertib = compound: COc1cc(Nc2ncc3c(n2)-c2ccc(Cl)cc2C(c2c(F)cccc2OC)=NC3)ccc1C(=O)O [Alisertib]; settings: max 10 µM
Method in brief: as §1

AZD2811 = compound: CCN(CCO)CCCOc1ccc2c(Nc3cc(CC(=O)Nc4cccc(F)c4)[nH]n3)ncnc2c1 [AZD2811]; settings: max 1 µM
Method in brief: as §1

Paclitaxel = compound: CC(=O)O[C@H]1C(=O)[C@@]2(C)[C@H]([C@H](OC(=O)c3ccccc3)[C@]3(O)C[C@H](OC(=O)[C@H](O)[C@@H](NC(=O)c4ccccc4)c4ccccc4)C(C)=C1C3(C)C)[C@]1(OC(C)=O)CO[C@@H]1C[C@@H]2O [Paclitaxel]; settings: max 3 µM
Method in brief: as §1

AZD4320 = compound: CN(CC[C@H](CSC1=CC=CC=C1)NC2=C(C=C(C=C2)S(=O)(=O)NC(=O)C3=CC=C(C=C3)N4CCC(CC4)[C@H](C5=CC=CC=C5C6=CC=C(C=C6)Cl)O)S(=O)(=O)C(F)(F)F)CCO [AZD4320]; settings: max 1 µM
Method in brief: as §1

Palbociclib = compound: CC(=O)c1c(C)c2cnc(Nc3ccc(N4CCNCC4)cn3)nc2n(C2CCCC2)c1=O [Palbociclib]; settings: max 10 µM
Method in brief: as §1

Crizotinib = compound: C[C@@H](Oc1cc(-c2cnn(C3CCNCC3)c2)cnc1N)c1c(Cl)ccc(F)c1Cl [Crizotinib]; settings: max 10 µM
Method in brief: as §1

AZD5991 = compound: Cc1c2c(nn1C)CSCc1cc(n(C)n1)CSc1cc(c3ccccc3c1)OCCCc1c(C(=O)O)n(C)c3c-2c(Cl)ccc13 [AZD5991]; settings: max 1 µM
Method in brief: as §1

Gefitinib = compound: COc1cc2ncnc(Nc3ccc(F)c(Cl)c3)c2cc1OCCCN1CCOCC1 [Gefitinib]; settings: max 10 µM
Method in brief: as §1

AZD8186 = compound: C[C@@H](Nc1cc(F)cc(F)c1)c1cc(C(=O)N(C)C)cc2c(=O)cc(N3CCOCC3)oc12 [AZD8186]; settings: max 10 µM
Method in brief: as §1

AZD5153 = compound: COc1nnc2ccc(N3CCC(c4ccc(OCCN5CCN(C)C(=O)[C@H]5C)cc4)CC3)nn12 [AZD5153]; settings: max 1 µM
Method in brief: as §1

Gemcitabine = compound: Nc1ccn([C@@H]2O[C@H](CO)[C@@H](O)C2(F)F)c(=O)n1 [Gemcitabine]; settings: max 0.3 µM
Method in brief: as §1

AZD7648 = compound: Cc1cc2ncnn2cc1Nc1ncc2c(n1)n(C1CCOCC1)c(=O)n2C [AZD7648]; settings: max 10 µM
Method in brief: as §1

Etoposide = compound: COc1cc([C@@H]2c3cc4c(cc3[C@@H](O[C@@H]3O[C@@H]5CO[C@@H](C)O[C@H]5[C@H](O)[C@H]3O)[C@H]3COC(=O)[C@H]23)OCO4)cc(OC)c1O [Etoposide]; settings: max 10 µM
Method in brief: as §1

AZD5363 = compound: C1CN(CCC1(C(=O)N[C@@H](CCO)C2=CC=C(C=C2)Cl)N)C3=NC=NC4=C3C=CN4 [AZD5363]; settings: max 10 µM
Method in brief: as §1

Olaparib = compound: O=C(c1cc(Cc2n[nH]c(=O)c3ccccc23)ccc1F)N1CCN(C(=O)C2CC2)CC1 [Olaparib]; settings: max 10 µM
Method in brief: as §1

[1] = compound: O=C(Nc1ccc2[nH]nc(-c3ccncc3)c2c1)[C@@H]1CCN(CC(=O)N2CCN(c3ccc(-c4ncccn4)cc3)CC2)C1; settings: max 5 µM
Method in brief: as §1

Prexasertib = compound: COc1cccc(OCCCN)c1-c1cc(Nc2cnc(C#N)cn2)n[nH]1 [Prexasertib]; settings: max 1 µM
Method in brief: as §1

SRA737 = compound: N#Cc1cnc(Nc2cc(NC[C@H]3CNCCO3)c(C(F)(F)F)cn2)cn1 [SRA737]; settings: max 10 µM
Method in brief: as §1

Carboplatin = compound: C1CC(C1)(C(=O)[O-])C(=O)[O-].N.N.[Pt+2] [Carboplatin]; settings: max 10 µM
Method in brief: as §1

AZD1390 = compound: CC(C)n1c(=O)n(C)c2cnc3cc(F)c(-c4ccc(OCCCN5CCCCC5)nc4)cc3c21 [AZD1390]; settings: max 0.3 µM
Method in brief: as §1

AZD0156 = compound: CN(C)CCCOc1ccc(-c2ccc3ncc4c(c3c2)n(C2CCOCC2)c(=O)n4C)cn1 [AZD0156]; settings: max 3 µM
Method in brief: as §1

Dasatinib = compound: CC1=C(C(=CC=C1)Cl)NC(=O)C2=CN=C(S2)NC3=CC(=NC(=N3)C)N4CCN(CC4)CCO [Dasatinib]; settings: max 2 µM
Method in brief: as §1

SN-38 = compound: CCc1c2c(nc3ccc(O)cc13)-c1cc3c(c(=O)n1C2)COC(=O)[C@]3(O)CC [SN-38]; settings: max 0.3 µM
Method in brief: as §1

Taselisib = compound: Cc1nc(-c2cn3c(n2)-c2ccc(-c4cnn(C(C)(C)C(N)=O)c4)cc2OCC3)n(C(C)C)n1 [Taselisib]; settings: max 10 µM
Method in brief: as §1

SG3199 = compound: CC1=CN2[C@@H](C1)C=NC3=CC(=C(C=C3C2=O)OC)OCCCCCOC4=C(C=C5C(=C4)N=C[C@@H]6CC(=CN6C5=O)C)OC [SG3199]; settings: max 0.001 µM
Method in brief: as §1

Savolitinib = compound: C[C@@H](c1ccc2nccn2c1)n1nnc2ncc(-c3cnn(C)c3)nc21 [Savolitinib]; settings: max 1 µM
Method in brief: as §1

AZD6738 = compound: C[C@@H]1COCCN1C2=NC(=NC(=C2)C3(CC3)[S@](=N)(=O)C)C4=C5C=CNC5=NC=C4 [AZD6738]; settings: max 10 µM
Method in brief: as §1

| Cell Line | IC50, cell viability 72 h (MK-2206) | IC50, cell viability 72 h (5-Fluorouracil) | IC50, cell viability 72 h (AZD1775) | IC50, cell viability 72 h (Doxorubicin) | IC50, cell viability 72 h (Selumetinib) | IC50, cell viability 72 h (Venetoclax) | IC50, cell viability 72 h (Trametinib) | IC50, cell viability 72 h (Lapatinib) | IC50, cell viability 72 h (Alisertib) | IC50, cell viability 72 h (AZD2811) | IC50, cell viability 72 h (Paclitaxel) | IC50, cell viability 72 h (AZD4320) | IC50, cell viability 72 h (Palbociclib) | IC50, cell viability 72 h (Crizotinib) | IC50, cell viability 72 h (AZD5991) | IC50, cell viability 72 h (Gefitinib) | IC50, cell viability 72 h (AZD8186) | IC50, cell viability 72 h (AZD5153) | IC50, cell viability 72 h (Gemcitabine) | IC50, cell viability 72 h (AZD7648) | IC50, cell viability 72 h (Etoposide) | IC50, cell viability 72 h (AZD5363) | IC50, cell viability 72 h (Olaparib) | IC50, cell viability 72 h [1] | IC50, cell viability 72 h (Prexasertib) | IC50, cell viability 72 h (SRA737) | IC50, cell viability 72 h (Carboplatin) | IC50, cell viability 72 h (AZD1390) | IC50, cell viability 72 h (AZD0156) | IC50, cell viability 72 h (Dasatinib) | IC50, cell viability 72 h (SN-38) | IC50, cell viability 72 h (Taselisib) | IC50, cell viability 72 h (SG3199) | IC50, cell viability 72 h (Savolitinib) | IC50, cell viability 72 h (AZD6738) |
| --- | --- | --- | --- | --- | --- | --- | --- | --- | --- | --- | --- | --- | --- | --- | --- | --- | --- | --- | --- | --- | --- | --- | --- | --- | --- | --- | --- | --- | --- | --- | --- | --- | --- | --- | --- |
| MOG-G-CCM (Low Grade Glioma) | > 10000 nM | > 20000 nM | > 3000 nM | > 1000 nM | > 10000 nM | > 1000 nM | > 1000 nM | > 10000 nM | 1930 nM | > 1000 nM | 4.97 nM | > 1000 nM | > 10000 nM | > 10000 nM | > 1000 nM | > 10000 nM | 4390 nM | 449 nM | > 300 nM | > 10000 nM | > 10000 nM | > 10000 nM | > 10000 nM | > 5000 nM | 157 nM | > 10000 nM | > 10000 nM | > 300 nM | > 3000 nM | 354 nM | 293 nM | 8270 nM | > 1 nM | > 1000 nM | > 10000 nM |
| MN-60 (B-Lymphoblastic Leukemia) | > 10000 nM | > 20000 nM | > 3000 nM | > 1000 nM | > 10000 nM | > 1000 nM | > 1000 nM | > 10000 nM | > 10000 nM | > 1000 nM | 674 nM | > 1000 nM | > 10000 nM | > 10000 nM | > 1000 nM | > 10000 nM | > 10000 nM | 111 nM | 213 nM | > 10000 nM | > 10000 nM | > 10000 nM | > 10000 nM | > 5000 nM | > 1000 nM | > 10000 nM | > 10000 nM | > 300 nM | > 3000 nM | > 2000 nM | 14.6 nM | > 10000 nM | > 1 nM | > 1000 nM | > 10000 nM |
| OCI-AML3 (Acute Myeloid Leukemia) | > 10000 nM | 3070 nM | 615 nM |  | 91.9 nM | > 1000 nM | 2.98 nM | > 10000 nM |  | 324 nM | 4.57 nM | > 1000 nM | 5340 nM | 6530 nM | 250 nM | > 10000 nM | > 10000 nM | 25.6 nM | 5.04 nM | > 10000 nM | 1270 nM | > 10000 nM | > 10000 nM | 156 nM |  | 5320 nM | > 10000 nM | > 300 nM | > 3000 nM | > 2000 nM | 10.1 nM | 1440 nM |  | > 1000 nM | 1810 nM |
